Test results published in patent US20250041427A1, “DINUCLEAR PHOSPHANE GOLD(I) COMPLEXES FOR TREATING CANCER” (priority 2023, published 2025).
Like-named read-outs stand apart in the source and are kept apart here.

Tests used:
HCT116 cells = experiment: AlamarBlue cell proliferation assay, HCT116; details: for IC50: read-out: Half maximal inhibitory concentration (IC50) HCT116, 24 hours exposure, AlamarBlue, mean of three replicates ± standard error
Procedure: (§1) Human colorectal carcinoma cell line HCT116 and human breast adenocarcinoma cell line MCF-7 were purchased from ATCC. The cells were cultured in Dulbecco's Modified Eagle's Medium (DMVEM) complemented with 10% fetal bovine serum (FBS) at 37° C. (5% CO2 and 95% humidity). 100 µg/mL streptomycin and 100 U/mL penicillin were used in the media to prevent microbial growth. Assays were performed on cells from passages 3-8.
(§2) AlamarBlue® was used to determine the drug-dose response according to the manufacturer's instruction (Thermo Fisher, Waltham, Massachusetts, United States). The samples of complexes were diluted to a working concentration in DMVEM before their exposure to the cancer cells. The cancer cells were cultivated in 96-well plates for 24 hours. The cell culture medium was then removed and the diluted test compounds were added to the wells. The well plates were incubated for 24 hours at 37° C. with 5% CO2. Subsequently, the cell culture medium was removed for the addition of 10% AlamarBlue® (diluted in DMEM) to each well. The plates were incubated for 3 hours at 37° C. protected from light. The cytotoxicity/proliferation was measured using fluorescence spectrophotometry with fluorescence being read at an excitation wavelength of 560 nm and an emission wavelength of 590 nm. To calculate the percentage difference in reduction between treated and control cells in cytotoxicity/proliferation assays, the following formula was used: […]
(§3) The prepared […] complexes 1-4 were evaluated for their inhibition of cell proliferation towards two human cancer cell lines: HCT116 and MCF-7. The cells were treated with a range of concentrations (0.3, 1, 3, 10, 100 μM) of the complexes for 24 hours. The cells viability were then assessed and half maximal inhibitory concentration (IC50) values were calculated thereafter. […] These values are about 6- to 20-fold lower than cisplatin IC50 values.

MCF-7 cells [1] = experiment: AlamarBlue cell proliferation assay, MCF-7; assay type: cell-based, human; details: 24 hours exposure, mean of three replicates ± standard error
Procedure: as §1, §2, §3

MCF-7 cancer cell line = details: value from cited reference; read-out: IC50 MCF-7 (literature complexes); cited from earlier work
[2] = tested on: prostate (PC-3) cancer cells; details: PC-3 cells; cited from earlier work
[3] = tested on: glioblastoma (U87-MG) cancer cells; details: cited from earlier work
HCT116 cancer cell line = details: value from cited reference; read-out: IC50 HCT116 (literature complexes); cited from earlier work
MCF-7 cells [4] = experiment: Mitochondrial membrane potential (ΔΨm), JC-1 dye; assay type: cell-based, human; details: MCF-7, 24 hours
Procedure: MCF-7 cells (1×10^4 cells per well in a 96-well plate) were treated with different concentrations of complexes, and untreated cells were used as a negative control. After treatment for 24 hours, 5,5′,6,6′-tetrachloro-1,1′,3,3′-tetraethylbenzimidazolocarbocyanine iodide (JC-1) dye (Thermo Fisher, Waltham, Massachusetts, United States) was added to each well containing the cells. The staining was performed following the protocol provided by the manufacturer. A fluorescence spectrophotometer was used to measure the fluorescence of JC-1-stained cells, and fluorescence signals in the red and green channels were recorded separately.
To examine the effect of complexes 1-4 on mitochondrial membrane potential (ΔΨm), JC-1 fluorescence dye was used to stain intact and depolarized mitochondria in MCF-7 cells following exposure to the complexes.

[5] = Solution chemistry / stability by UV-Vis spectrophotometry; assay type: physicochemical; details: room temperature; complexes 2, 3 in DMSO:H2O (3:7); complex 4 in 100% DMSO and DMSO:H2O (1:1)
Procedure: The solution chemistry of complexes 2, 3, and 4 ([…], 10 mL) was investigated using ultraviolet-visible (UV-Vis) spectrophotometry at room temperature. The studied complexes are partially soluble in aqueous solution. Complexes 2 and 3 were dissolved in the mixture of DMSO:H2O (3:7), where H2O is a co-solvent of DMSO. A UV-Vis experiment was performed initially at time=0 (2 and 3) and at time=24 hours (2′ and 3′) (FIG. 26A). Furthermore, complex 4 was dissolved in 100% DMSO and a mixture of (DMSO:H2O) (1:1), where H2O is co-solvent of DMSO. Further, a UV-Vis experiment was performed initially at time=0 (4) and at time=24 hours.

[6] = read-out: Half maximal inhibitory concentration (IC50) MCF-7

`N.N.[Cl][Pt][Cl]` [Cisplatin, reference compound] showed an IC50 (HCT116 cells) of 20800 ± 930 nM and an IC50 (MCF-7 cells [1]; [6]) of 21100 ± 1410 nM.

For `[C](#Cc1ccncc1)[Au][PH](CCCC[PH]([Au][C]#Cc1ccncc1)(c1ccccc1)c1ccccc1)(c1ccccc1)c1ccccc1` [[Au2(dppb)(4-ep)2]], the IC50 (MCF-7 cancer cell line) is listed as 2800 ± 600 nM.

For `COc1cccc(OC)c1[PH]([Au+][PH](c1c(OC)cccc1OC)(c1c(OC)cccc1OC)c1c(OC)cccc1OC)(c1c(OC)cccc1OC)c1c(OC)cccc1OC.F[P-](F)(F)(F)(F)F` [[Au{P(2,6-dimethoxyphenyl)3}2]PF6], the “fold higher cytotoxicity than cisplatin” value [2] is given as 30 fold and the “fold higher cytotoxicity than cisplatin” value [3] is given as 30 fold.

For “Chlorotriphenylposphine-1,3-bis(diphenylphosphino)propanegold(I) [[Au(dppp)(PPh3)Cl]]”, the IC50 (HCT116 cancer cell line) is given as 4170 nM.

In the case of [Au2(Bdbp)(Dpma)]P2F12 [Complex 4], the IC50 (HCT116 cells) is reported as 930 nM, the IC50 (MCF-7 cells [1]; listed as 4, read-out: Half maximal inhibitory concentration (IC50) MCF-7) is reported as 1200 ± 320 nM and the IC50 (MCF-7 cells [1]; listed as complex 4, read-out: Half maximal inhibitory concentration (IC50) MCF-7) is reported as 1800 nM. The “effect on mitochondrial membrane potential (ΔΨm) at 2.5 μM” value (MCF-7 cells [4]) was “most reduction of ΔΨm” and the “stability in solution (UV-Vis, time 0 vs 24 hours)” value [5] was “high stability”.

In the case of [Au2(Bdbp)(Dppb)]P2F12 [Complex 3], the IC50 (HCT116 cells) is reported as 1800 ± 220 nM, the “increase of cytotoxic effect on lengthening linker from 2 carbons (complex 1) to 4 carbons” value (HCT116 cells; relative to complex 1, FIG. 24A/24E vs 24C/24G (HCT116 and MCF-7)) is reported as “about 4.5 fold” and the IC50 (MCF-7 cells [1]; [6]) is reported as 1300 ± 540 nM. The “stability in solution (UV-Vis, time 0 vs 24 hours)” value [5] was “less stability”.

With [Au2(Bdbp)(Dppe)]P2F12 [Complex 1] the IC50 (HCT116 cells) was 8200 nM, the IC50 (MCF-7 cells [1]; [6]) was 7900 nM and the “effect on mitochondrial membrane potential (ΔΨm) at 2.5 μM” value (MCF-7 cells [4]) was “least reduction of ΔΨm”.

For [Au2(Bdbp)(Dppp)]P2F12 [Complex 2], the IC50 (HCT116 cells) was 3600 ± 370 nM and the IC50 (MCF-7 cells [1]; [6]) was 2300 ± 240 nM.
